We go through 23 compounds from patent US20100311741A1, “Bicyclosulfonyl Acid (BCSA) Compounds and Their Use as Therapeutic Agents” (INHIBOX LTD., priority 2007, published 2010).

T1 sequence (P78536 215-671 limits assumed): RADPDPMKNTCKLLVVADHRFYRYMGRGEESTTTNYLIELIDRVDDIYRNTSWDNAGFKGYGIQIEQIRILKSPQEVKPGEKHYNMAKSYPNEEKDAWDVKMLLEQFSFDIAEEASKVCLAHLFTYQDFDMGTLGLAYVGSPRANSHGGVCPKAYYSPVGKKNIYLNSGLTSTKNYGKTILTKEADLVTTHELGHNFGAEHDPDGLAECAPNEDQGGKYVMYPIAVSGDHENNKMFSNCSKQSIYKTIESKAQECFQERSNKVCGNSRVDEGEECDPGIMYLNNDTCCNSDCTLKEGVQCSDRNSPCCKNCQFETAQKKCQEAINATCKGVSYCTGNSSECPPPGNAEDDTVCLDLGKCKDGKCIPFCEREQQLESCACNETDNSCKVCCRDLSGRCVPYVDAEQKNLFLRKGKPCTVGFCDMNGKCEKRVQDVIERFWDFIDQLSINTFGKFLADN

The first series concerns the target T1, Human recombinant TACE enzyme (Homo sapiens, UniProt P78536).
T1 construct: purchased R and D Systems, Abingdon, UK 930-ADB
In words: TACE assay (fluorescent peptide substrate). The series is classed as biochemical. The following applies: 3.5 h; single concentration @2 (μM); read-out: Av. TACE Inhibition, % @2. Here is the method:
The activity of the compounds as TACE inhibitors was determined using a commercially available peptide substrate (M-2255, Bachem UK Ltd, St. Helens, UK) and recombinant TACE enzyme (930-ADB, R and D Systems, Abingdon, UK). Human recombinant TACE enzyme (5 ng/30 μL) was incubated for 3.5 hour at 37° C. in assay buffer (25 mM Tris.HCl, 2.5 μM ZnCl2, 0.005% Brij 35, pH 8.0) with 5 μM substrate in the presence of test compound (TACE inhibitor). The extent of TACE activity was determined by measurement of the fluorescence (excitation 355 nm, emission 460 nm).
(§1) Percent activity (% activity) for each test compound was calculated as:
(§2) % activity={(S^C−B)/(S^o−B)}×100
(§3) wherein S^C denotes signal measured in the presence of enzyme and the compound being tested, S^o denotes signal measured in the presence of enzyme but in the absence of the compound being tested, and B denotes the background signal measured in the absence of both enzyme and compound being tested. The IC50 corresponds to the concentration which achieves 50% activity.
Turning to `O=C(CC1c2cccc(Cl)c2S(=O)(=O)N1c1ccccc1)NO` (stereo not drawn) [IX-088], the inhibition at 2 µM was found to be 34%.
Consider `O=C(CC1c2c(Cl)cc(Cl)cc2S(=O)(=O)N1c1ccccc1)NO` (stereo not drawn) [IX-089], for which the inhibition at 2 µM was determined as 0%.
With `O=C(CC1c2ccc(C(F)(F)F)cc2S(=O)(=O)N1c1ccccc1)NO` (stereo not drawn) [IX-090], the inhibition at 2 µM came to 10%.
The same measure, in the same setting: next, `COc1cccc2c1S(=O)(=O)N(c1ccccc1)C2CC(=O)NO` (stereo not drawn) [IX-091]: 13%; `COc1cc(Cl)cc2c1S(=O)(=O)N(c1ccccc1)C2CC(=O)NO` (stereo not drawn) [IX-092]: 23%; `COc1ccc2c(c1Cl)C(CC(=O)NO)N(c1ccccc1)S2(=O)=O` (stereo not drawn) [IX-093]: 29%.

Staying with this series, now noted: 3.5 h; single concentration @100 (μM); read-out: Av. TACE Inhibition, % @100.
As to `COc1cccc(N2C(CC(=O)NO)c3ccccc3S2(=O)=O)c1` (stereo not drawn) [IX-009], the inhibition at 100 µM is 52%.
With `O=C(CC1c2ccccc2S(=O)(=O)N1c1cccc(CO)c1)NO` (stereo not drawn) [IX-075], the inhibition at 100 µM is 64%.
On the same count and under the same terms, the figure for `O=C(CCC1c2ccccc2S(=O)(=O)N1c1ccccc1)NO` (stereo not drawn) [IX-094] is 26%.
With `O=C(NO)C1c2ccccc2S(=O)(=O)N1c1ccccc1` (stereo not drawn) [IX-095], the inhibition at 100 µM amounted to 38%.
For the compound `O=C(NO)C1c2c(Cl)cccc2S(=O)(=O)N1c1ccccc1` (stereo not drawn) [IX-096], the inhibition at 100 µM is 27%.
Regarding `O=C(O)CC1c2ccccc2S(=O)(=O)N1c1ccccc1` (stereo not drawn) [IX-099], the inhibition at 100 µM was determined as 9%.
For the compound `CC#CCOc1ccc(N2C(CC(=O)O)c3ccccc3S2(=O)=O)cc1` (stereo not drawn) [IX-100], the inhibition at 100 µM is 50%.

Another series relates to HDAC (HeLa cell extract). In words: Selectivity assay: HDAC activity, fluorescent assay (Fluor de Lys). The series is classed as biochemical. The conditions noted are these: 15 μM acetylated substrate, 1 hour at 37° C., read-out: Av. HDAC Inhibition EC50. Here is the method: Alternatively, the activity of the compounds as HDAC inhibitors was determined using a commercially available fluorescent assay kit (Fluor de Lys™, BioMol Research Labs, Inc., Plymouth Meeting, USA). HeLa extract was incubated for 1 hour at 37° C. in assay buffer (25 mM HEPES, 137 mM NaCl, 2.7 mM KCl, 1 mM MgCl2, pH 8.0) with 15 μM acetylated substrate in the presence of test compound (HDAC inhibitor). The extent of deacetylation was determined by the addition of 50 μL of a 1-in-500 dilution of Developer, and subsequent measurement of the fluorescence (excitation 355 nm, emission 460 nm), according to the instructions provided with the kit.
The HeLa cell extract was made from HeLa cells (ATCC Ref. No. CCL-2) by freeze-thawing three times in 60 mM Tris.HCl, pH 8.0, 450 mM NaCl, 30% glycerol. Two cell volumes of extraction buffer were used, and particulate material was centrifuged out (20,800 g, 4° C., 10 minutes). The supernatant extract having deacetylase activity was aliquoted and frozen for storage.
as §1, §2, §3
Turning to `CCOc1ccc2c(c1)C(CC(=O)NO)N(c1ccccc1)S2(=O)=O` (stereo not drawn) [IX-078], the EC50 came to 23.7 µM.

Still in this series, the particulars now being: single concentration @100 (μM).
With `O=C(C[C@H]1c2ccccc2S(=O)(=O)N1c1ccccc1)NO` [IX-002], the “Av. HDAC Inhibition, % @100” value was determined as 43%@100.
Still for that read-out and setting: the figure for `O=C(C[C@@H]1c2ccccc2S(=O)(=O)N1c1ccccc1)NO` [IX-003] is 44%@100; for `O=C(CC1c2ccccc2S(=O)(=O)N1c1ccc2ccccc2c1)NO` (stereo not drawn) [IX-004] it is 32%@100; for `COc1cccc(N2C(CC(=O)NO)c3ccccc3S2(=O)=O)c1` (stereo not drawn) [IX-009] it is 24%@100.
On to `COc1ccc(N2C(CC(=O)NO)c3ccccc3S2(=O)=O)cc1` (stereo not drawn) [IX-010], for which the “Av. HDAC Inhibition, % @100” value came to 17%@100.
In the case of `O=C(CC1c2ccccc2S(=O)(=O)N1c1ccc(Cl)cc1)NO` (stereo not drawn) [IX-012], the “Av. HDAC Inhibition, % @100” value stood at 11%@100.
Consider `O=C(CC1c2ccccc2S(=O)(=O)N1c1ccc(OC(F)(F)F)cc1)NO` (stereo not drawn) [IX-020], for which the “Av. HDAC Inhibition, % @100” value was −2%@100.
`CCCCOc1ccc(N2C(CC(=O)NO)c3ccccc3S2(=O)=O)cc1` (stereo not drawn) [IX-036]: the “Av. HDAC Inhibition, % @100” value is reported as −4%@100.
As for `COc1ccc2c(c1)C(CC(=O)NO)N(c1ccccc1)S2(=O)=O` (stereo not drawn) [IX-068], the “Av. HDAC Inhibition, % @100” value turned out to be 44%@100.
For `O=C(CC1c2ccccc2S(=O)(=O)N1c1cccc(CO)c1)NO` (stereo not drawn) [IX-075], the “Av. HDAC Inhibition, % @100” value amounted to 2%@100.
The same measure, in the same setting: the figure for `O=C(C[C@@H]1c2ccccc2S(=O)(=O)[C@H]1c1ccccc1)NO` [IX-097] is 20%@100.

Tested on in another series: not given
Assay: not given
Details: not given
Turning to `O=C(O)CC1c2ccccc2S(=O)(=O)N1c1ccccc1` (stereo not drawn) [IX-099], the melting point is 178 to 179 °C (dec.).
For the compound `CC#CCOc1ccc(N2C(CC(=O)O)c3ccccc3S2(=O)=O)cc1` (stereo not drawn) [IX-100], the melting point lay within 160 to 161 °C.

Usually inhibition stands for the change of the read-out against control, counted positive when it falls. One may read the EC50 as the concentration at which the effect is half-maximal. As a reminder, the melting point is the temperature, or range, at which the solid turns liquid.
